Measured values as given in US20040143007A1, “Malononitrile compounds and their use as pesticides” (priority 2001, published 2004).

Experiments:
Type in all cases: in vivo
[1] = tested on: Blattalla germanica (German cockroach); experiment: Pesticidal test against Blattalla germanica, treated filter paper with sucrose bait (Test Example 6); conditions: Blattella germanica, 144 h; active ingredient 500 ppm, 0.7 ml on filter paper; two male adults; after 6 days
Text: Two male adults of Blattalla germanica (German cockroach) were set free in the polyethylene cup, which was then kept covered. After 6 days, their survival was examined to determine the mortality.

[2] = tested on: Culex pipiens pallens (common mosquito); experiment: Pesticidal test against Culex pipiens pallens, larvae in treated water (Test Example 7); conditions: 24 h, 0.7 ml of 500 ppm test liquid in 100 ml water (active ingredient 3.5 ppm), twenty final-instar larvae, after 1 days
Description: In 100 ml of ion-exchanged water, the test liquid had been prepared as described above, was added dropwise in an amount of 0.7 ml (the concentration of active ingredient was 3.5 ppm). Twenty final-instar larvae of Culex pipiens pallens (common mosquito) were set free in the solution. After 1 days, their survival was examined to determine the mortality.

[3] = tested on: Musca domestics (house fly); experiment: Pesticidal test against Musca domestics, treated filter paper with sucrose bait (Test Example 5); conditions: active ingredient 500 ppm, 0.7 ml on filter paper, ten female adults, after 24 hours
Description: Ten female adults of Musca domestics (house fly) were set free in the polyethylene cup, which was then kept covered. After 24 hours, their survival was examined to determine the mortality.

[4] = tested on: Diabrotica undecimpunctata (southern corn rootworm); experiment: Pesticidal test against Diabrotica undecimpunctata, filter paper with corn seed and eggs (Test Example 4); conditions: active ingredient 50 ppm, 1 ml on filter paper, 30 to 50 eggs, 25° C.
Description: One germinated seed of corn and 30 to 50 eggs of Diabrotica undecimpunctata (southern corn rootworm) was placed on the filter paper in the polyethylene cup, which was then kept covered and left in a room at 25° C. On the 6th day after, the number of surviving larvae of Diabrotica undecimpunctata was examined.

SMILES	mortality at 500 ppm [1] [%]	mortality at 3.5 µg/mL [2] [%]	mortality at 500 ppm [3] [%]	number of surviving pests on the 6th day after [4]
N#CC(C#N)(Cc1ccc(C(F)(F)F)cc1)CC1CCC1 [Compound 7, 2-(cyclobutylmethyl)-2-(4-(trifluoromethyl)benzyl)malononitrile]	100	100	100	
N#CC(C#N)(Cc1ccc(Cl)cc1)CC1CC1 [Compound 1, 2-(4-chlorobenzyl)-2-(cyclopropylmethyl)malononitrile]	100	100		0
N#CC(C#N)(Cc1ccc(OC(F)(F)F)cc1)CC1CC1 [Compound 2, 2-(cyclopropylmethyl)-2-(4-(trifluoromethoxy)benzyl)malononitrile]	100	100	100	0
N#Cc1ccc(CC(C#N)(C#N)CC2CC2(Cl)Cl)cc1 (stereo not drawn) [Compound 9, 2-(4-cyanobenzyl)-2-((2,2-dichlorocyclopropyl)methyl)malononitrile]		100		
N#CC(C#N)(Cc1ccc(C(F)(F)F)cc1)CC1CC1(Cl)Cl (stereo not drawn) [Compound 10, 2-((2,2-dichlorocyclopropyl)methyl)-2-(4-(trifluoromethyl)benzyl)malononitrile]	100	100	100	
N#CC(C#N)(Cc1ccc(OC(F)(F)F)cc1)CC1CCC1 [Compound 3, 2-(cyclobutylmethyl)-2-(4-(trifluoromethoxy)benzyl)malononitrile]		100	100	
N#CC(C#N)(Cc1ccc(C(F)(F)F)cc1)CC1CC1 [Compound 6, 2-(cyclopropylmethyl)-2-(4-(trifluoromethyl)benzyl)malononitrile]	100	100	100	
N#CC(C#N)(Cc1ccc(OC(F)(F)F)cc1)CC1CC1(Cl)Cl (stereo not drawn) [Compound 5, 2-((2,2-dichlorocyclopropyl)methyl)-2-(4-(trifluoromethoxy)benzyl)malononitrile]		100	100	
N#CC(C#N)(Cc1ccc(SC(F)(F)F)cc1)CC1CCC1 [Compound 4, 2-(cyclobutylmethyl)-2-(4-(trifluoromethylthio)benzyl)malononitrile]	100	100	100	
